Results published in patent publication US12091411B2, “IRAK degraders and uses thereof” (Kymera Therapeutics, Inc., priority 2022, dated 2024).
Like-named read-outs stand apart in the source and are kept apart here.

Biological target: T1, IRAK4 (Homo sapiens, UniProt Q9NWZ3)
T1 construct: Degradation of IRAK4 in OCI-LY10 was quantitatively measured using Meso Scale Discovery technology; endogenous in cells; host or cells: OCI-LY10
T1 sequence (Q9NWZ3 1-460): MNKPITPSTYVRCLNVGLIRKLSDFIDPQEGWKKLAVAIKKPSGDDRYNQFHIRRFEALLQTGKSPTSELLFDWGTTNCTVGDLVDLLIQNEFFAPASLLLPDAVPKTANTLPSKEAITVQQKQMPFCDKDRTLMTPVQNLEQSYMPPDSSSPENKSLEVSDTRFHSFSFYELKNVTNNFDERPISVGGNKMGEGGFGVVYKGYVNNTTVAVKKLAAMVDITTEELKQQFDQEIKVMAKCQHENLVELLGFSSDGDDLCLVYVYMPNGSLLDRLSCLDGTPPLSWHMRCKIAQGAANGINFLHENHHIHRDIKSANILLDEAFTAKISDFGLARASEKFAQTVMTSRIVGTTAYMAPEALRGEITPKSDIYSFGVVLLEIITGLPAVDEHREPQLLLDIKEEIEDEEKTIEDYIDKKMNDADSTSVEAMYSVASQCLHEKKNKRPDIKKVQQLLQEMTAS
Test: IRAK4 MSD Degradation in OCI-LY10
Type: cell-based
Conditions: OCI-LY10 cells, MSD
Protocol: Degradation of IRAK4 in OCI-LY10 was quantitatively measured using Meso Scale Discovery technology. […] Compounds were then added to the assay plates with a final top concentration of 1 to 10 μM in a 1:3 dilution series with total of 8 doses. The assay plates were then incubated for 4 to 24 hours at 37° C. under 5% CO2. […] To prepare MSD assay plates (Meso Scale Discovery Catalog number L15XA-3), the plates were coated with 2 μg/mL capture antibody (mouse Anti-IRAK4 antibody [2H9], ab119942) in PBS, at 40 μL/well. […] Cell lysates were then added to MSD assay plates and the plates were incubated at room temperature for 1 hour. The plates were then washed 3 times with 150 μL/well TBST buffer and 25 μL/well primary detection antibody (rabbit Anti-IRAK4 antibody [Y279], from Abcam. Catalog number ab32511, 1 μg/mL). The assay plates were then incubated at room temperature for 1 hour, washed 3 times with 150 μL/well TBST buffer and 25 μL/well secondary detection antibody, SULFO-TAG anti-rabbit antibody were added (anti-rabbit antibody from Meso Scale Discovery, Catalog number R32AB-1, 1 μg/mL). The assay plates were then incubated at room temperature for 1 hour, washed 3 times with 150 μL/well TBST buffer, and 150 μL/well MSD reading buffer (Meso Scale Discovery catalog number R92TC-2) was added. The plates were then analyzed by a MSD reader (Meso Scale Discovery, Model Quick Plex SQ 120). The data was then analyzed by software Prism 7.0 from GraphPad and the dose-depended IRAK4 degradation were fit using a three-parameter logistic equation to calculate DC50.
The letter codes for IRAK4 DC50 include: A (<0.01 μM); B (0.01 to <0.1 μM); C (0.1 to 0.2 μM); and D (>0.2 μM or not tested).

[1] = 4 hrs incubation, read-out: IRAK4 degradation in OCI-LY10 at 4 hrs: DC50
[2] = 24 hrs incubation, read-out: IRAK4 degradation in OCI-LY10 at 24 hrs: DC50

DC50 [1] | DC50 [2] | SMILES
0.01 to 0.1 µM | > 0.2 µM | Cn1c(=O)n(C2CCC(=O)NC2=O)c2cccc(C#CCN3C[C@@H]4C[C@H]3CN4C[C@H]3CC[C@H](n4cc(NC(=O)c5cnn6ccc(N7C[C@H]8C[C@@H]7CO8)nc56)c(C(F)F)n4)CC3)c21 (some centres unmarked) [I-50]
0.01 to 0.1 µM | > 0.2 µM | COc1ccc2c(c1C#CCO[C@H]1CCN(C[C@H]3CC[C@H](n4cc(NC(=O)c5cnn6ccc(N7C[C@H]8C[C@@H]7CO8)nc56)c(C(F)F)n4)CC3)C[C@H]1F)n(C)c(=O)n2C1CCC(=O)NC1=O (some centres unmarked) [I-51]
< 0.01 µM | > 0.2 µM | O=C1CCN(c2cncc3c(C#CCO[C@@H]4CCN(C[C@H]5C[C@H](n6cc(NC(=O)c7cnn8ccc(N9C[C@H]%10C[C@@H]9CO%10)nc78)c(C(F)F)n6)C5)C[C@@H]4F)cccc23)C(=O)N1 [I-52]
< 0.01 µM | > 0.2 µM | C[C@H]1CN(C[C@H]2C[C@H](n3cc(NC(=O)c4cnn5ccc(N6C[C@H]7C[C@@H]6CO7)nc45)c(C(F)F)n3)C2)CC[C@@H]1OCC#Cc1cccc2c(N3CCC(=O)NC3=O)cncc12 [I-53]
< 0.01 µM | > 0.2 µM | COc1ccc2c(c1C#CCO[C@@H]1CCN(C[C@H]3C[C@H](n4cc(NC(=O)c5cnn6ccc(N7C[C@H]8C[C@@H]7CO8)nc56)c(C(F)F)n4)C3)C[C@@H]1F)n(C)c(=O)n2C1CCC(=O)NC1=O (some centres unmarked) [I-54]
0.01 to 0.1 µM | > 0.2 µM | C[C@@H]1CN(C[C@H]2CC[C@H](n3cc(NC(=O)c4cnn5ccc(N6C[C@H]7C[C@@H]6CO7)nc45)c(C(F)F)n3)CC2)CC[C@H]1OCC#Cc1cccc2c(N3CCC(=O)NC3=O)cncc12 [I-55]
< 0.01 µM | > 0.2 µM | C[C@H]1CN(C[C@H]2CC[C@H](n3cc(NC(=O)c4cnn5ccc(N6C[C@H]7C[C@@H]6CO7)nc45)c(C(F)F)n3)CC2)CC[C@@H]1OCC#Cc1cccc2c(N3CCC(=O)NC3=O)cncc12 [I-56]
0.01 to 0.1 µM | > 0.2 µM | C[C@H]1CN(C[C@H]2CC[C@H](n3cc(NC(=O)c4cnn5ccc(N6C[C@H]7C[C@@H]6CO7)nc45)c(C(F)F)n3)CC2)CC[C@@H]1OCC#Cc1ccc2c(N3CCC(=O)NC3=O)cncc2c1 [I-57]
< 0.01 µM | > 0.2 µM | COc1ccc2c(c1C#CCO[C@H]1CCN(C[C@H]3CC[C@H](n4cc(NC(=O)c5cnn6ccc(N7C[C@H]8C[C@@H]7CO8)nc56)c(C(F)F)n4)CC3)C[C@@H]1C)n(C)c(=O)n2C1CCC(=O)NC1=O (some centres unmarked) [I-58]
< 0.01 µM | > 0.2 µM | CCn1c(=O)n(C2CCC(=O)NC2=O)c2cccc(C#CCO[C@H]3CCN(C[C@H]4CC[C@H](n5cc(NC(=O)c6cnn7ccc(N8C[C@H]9C[C@@H]8CO9)nc67)c(C(F)F)n5)CC4)C[C@@H]3C)c21 (some centres unmarked) [I-59]
< 0.01 µM | > 0.2 µM | CCn1c(=O)n(C2CCC(=O)NC2=O)c2cccc(C#CCN3CCN(C[C@H]4CC[C@H](n5cc(NC(=O)c6cnn7ccc(N8C[C@H]9C[C@@H]8CO9)nc67)c(C(F)F)n5)CC4)CC3)c21 (some centres unmarked) [I-60]
< 0.01 µM | > 0.2 µM | Cn1c(=O)n(C2CCC(=O)NC2=O)c2cccc(N3CCN(C4CCN(C[C@H]5CC[C@H](n6cc(NC(=O)c7cnn8ccc(N9C[C@H]%10C[C@@H]9CO%10)nc78)c(C(F)F)n6)CC5)CC4)CC3)c21 (some centres unmarked) [I-62]
< 0.01 µM | > 0.2 µM | C[C@H]1CN(C[C@H]2CC[C@H](n3cc(NC(=O)c4cnn5ccc(N6C[C@H]7C[C@@H]6CO7)nc45)c(C(F)F)n3)CC2)CC[C@@H]1OCC#Cc1cccc2c1n(C1CC1)c(=O)n2C1CCC(=O)NC1=O (some centres unmarked) [I-63]
< 0.01 µM | > 0.2 µM | COc1ccc2c(c1C#CCO[C@@H]1CCN(C[C@H]3CC[C@H](n4cc(NC(=O)c5cnn6ccc(N7C[C@H]8C[C@@H]7CO8)nc56)c(C(F)F)n4)CC3)C[C@H]1C)n(C)c(=O)n2C1CCC(=O)NC1=O (some centres unmarked) [I-64]
< 0.01 µM | > 0.2 µM | O=C1CCC(n2c(=O)n(C3CC3)c3c(C#CCOC4CCN(C[C@H]5CC[C@H](n6cc(NC(=O)c7cnn8ccc(N9C[C@H]%10C[C@@H]9CO%10)nc78)c(C(F)F)n6)CC5)CC4)cccc32)C(=O)N1 (some centres unmarked) [I-65]
< 0.01 µM | > 0.2 µM | Cn1c(=O)n(C2CCC(=O)NC2=O)c2cccc(C3CC(CN4CCN(C[C@H]5CC[C@H](n6cc(NC(=O)c7cnn8ccc(N9C[C@H]%10C[C@@H]9CO%10)nc78)c(C(F)F)n6)CC5)CC4)C3)c21 (some centres unmarked) [I-66]

DC50 [1] | DC50 [2] | SMILES
< 0.01 µM | > 0.2 µM | Cn1c(=O)n(C2CCC(=O)NC2=O)c2cccc(C3CC(OC4CCN(C[C@H]5CC[C@H](n6cc(NC(=O)c7cnn8ccc(N9C[C@H]%10C[C@@H]9CO%10)nc78)c(C(F)F)n6)CC5)CC4)C3)c21 (some centres unmarked) [I-68]
< 0.01 µM | > 0.2 µM | Cn1c(=O)n(C2CCC(=O)NC2=O)c2cccc(N3CCC(N4CCN(C[C@H]5CC[C@H](n6cc(NC(=O)c7cnn8ccc(N9C[C@H]%10C[C@@H]9CO%10)nc78)c(C(F)F)n6)CC5)CC4)CC3)c21 (some centres unmarked) [I-69]
< 0.01 µM | > 0.2 µM | CCn1c(=O)n(C2CCC(=O)NC2=O)c2cccc(C#CCOC3CCN(C[C@H]4CC[C@H](n5cc(NC(=O)c6cnn7ccc(N8C[C@H]9C[C@@H]8CO9)nc67)c(C(F)F)n5)CC4)CC3)c21 (some centres unmarked) [I-70]
< 0.01 µM | > 0.2 µM | O=C1CCN(c2cncc3c(C4CCN(C5CCN(C[C@H]6CC[C@H](n7cc(NC(=O)c8cnn9ccc(N%10C[C@H]%11C[C@@H]%10CO%11)nc89)c(C(F)F)n7)CC6)CC5)CC4)cccc23)C(=O)N1 [I-74]
< 0.01 µM | > 0.2 µM | O=C1CCN(c2cncc3cc(C4CCN(C5CCN(C[C@H]6CC[C@H](n7cc(NC(=O)c8cnn9ccc(N%10C[C@H]%11C[C@@H]%10CO%11)nc89)c(C(F)F)n7)CC6)CC5)CC4)ccc23)C(=O)N1 [I-75]
< 0.01 µM | > 0.2 µM | O=C1CCN(c2cncc3c(N4CCN(C5CCN(C[C@H]6CC[C@H](n7cc(NC(=O)c8cnn9ccc(N%10C[C@H]%11C[C@@H]%10CO%11)nc89)c(C(F)F)n7)CC6)CC5)CC4)cccc23)C(=O)N1 [I-76]
< 0.01 µM | > 0.2 µM | O=C1CCN(c2cncc3cc(N4CCN(C5CCN(C[C@H]6CC[C@H](n7cc(NC(=O)c8cnn9ccc(N%10C[C@H]%11C[C@@H]%10CO%11)nc89)c(C(F)F)n7)CC6)CC5)CC4)ccc23)C(=O)N1 [I-77]
< 0.01 µM | > 0.2 µM | Cn1c(=O)n(C2CCC(=O)NC2=O)c2cccc([C@H]3C[C@@H](CN4CCN(C[C@H]5CC[C@H](n6cc(NC(=O)c7cnn8ccc(N9C[C@H]%10CC9CO%10)nc78)c(C(F)F)n6)CC5)CC4)C3)c21 (some centres unmarked) [I-78]
< 0.01 µM | > 0.2 µM | Cn1c(=O)n(C2CCC(=O)NC2=O)c2cccc([C@H]3C[C@H](CN4CCN(C[C@H]5CC[C@H](n6cc(NC(=O)c7cnn8ccc(N9C[C@H]%10C[C@@H]9CO%10)nc78)c(C(F)F)n6)CC5)CC4)C3)c21 (some centres unmarked) [I-79]
0.01 to 0.1 µM | > 0.2 µM | C[C@H]1CN(C[C@H]2CC[C@H](n3cc(NC(=O)c4cnn5ccc(N6C[C@@H]7C[C@H]6CO7)nc45)c(C(F)F)n3)CC2)CC[C@@H]1OCC#Cc1cccc2c1n(C)c(=O)n2[C@@H]1CCC(=O)NC1=O [I-80]
< 0.01 µM | > 0.2 µM | Cn1c(=O)n(C2CCC(=O)NC2=O)c2cccc([C@H]3C[C@@H](OC4CCN(C[C@H]5CC[C@H](n6cc(NC(=O)c7cnn8ccc(N9C[C@H]%10C[C@@H]9CO%10)nc78)c(C(F)F)n6)CC5)CC4)C3)c21 (some centres unmarked) [I-81]
> 0.2 µM | > 0.2 µM | Cn1c(=O)n(C2CCC(=O)NC2=O)c2cccc([C@H]3C[C@H](OC4CCN(C[C@H]5CC[C@H](n6cc(NC(=O)c7cnn8ccc(N9C[C@H]%10C[C@@H]9CO%10)nc78)c(C(F)F)n6)CC5)CC4)C3)c21 (some centres unmarked) [I-82]
> 0.2 µM | > 0.2 µM | COc1cc2nn([C@H]3CC[C@H](CN4CCC5(CC4)CCN(c4cccc6c4n(C)c(=O)n6C4CCC(=O)NC4=O)CC5)CC3)cc2cc1NC(=O)c1cncc(F)c1 (some centres unmarked) [I-83]
> 0.2 µM | > 0.2 µM | COc1cc2nn([C@H]3CC[C@H](CN4CCC5(CC4)CCN(c4c(C)ccc6c4n(C)c(=O)n6C4CCC(=O)NC4=O)CC5)CC3)cc2cc1NC(=O)c1cncc(C#N)c1 (some centres unmarked) [I-84]
> 0.2 µM | > 0.2 µM | COc1cc2nn([C@H]3CC[C@H](CN4CCC5(CC4)CCN(c4cccc(N6CCC(=O)NC6=O)c4)CC5)CC3)cc2cc1NC(=O)c1cncc(C#N)c1 [I-85]
